Results taken from US8414989B2, “Cyclodextrin compositions, articles, and methods” (Cellresin Technologies, LLC, priority 2011, dated 2013).

Legend:
[1] = Example 6: 1-MCP headspace release from PSA labels; assay type: physicochemical; conditions: 2.5 cm x 2.5 cm PSA label, 250 mL bottle; for Headspace concentration of 1-MCP, average: 50 μL water
Procedure: A 100 mL quartz beaker was charged with 54 g of 2-isooctyl acrylate, 6 g of acrylic acid, and 0.60 g of 1-hydroxycyclohexyl phenyl ketone (IRGACURE® 184, Ciba Specialty Chemicals Corp. of Tarrytown, N.Y.). The beaker was equipped with a mechanical stirrer, and the contents were mixed for about 5 minutes while sparging with dry helium. Then the beaker was irradiated with a medium pressure mercury arc lamp operating at 79 watts per cm situated about 15 cm from the side of the beaker. The light was turned off when the contents of the flask were of a honey-like consistency, about 1.5 minutes. The beaker was further charged with 3.23 g of 1-MCP/c/α-CD, 0.89 g of IRGACURE® 184, 5.8 g of isooctyl acrylate, and 0.72 g of acrylic acid. The beaker contents were mixed until uniformly dispersed, about 5 minutes.
About 4 mL of the mixture in the bottle was removed with a metered dropper and dispensed on 30.5 cm by 30.5 cm white paper labelstock, and drawn down using a metering rod (Meyer coating rod #30) having a delivered coating thickness of 25 microns. Then a 21.5 cm by 28 cm silicone coated polyester (PET) film sheet (120 μm thick (obtained from the 3M Company of St. Paul, Minn.) was placed over the coated labelstock, taking care not to entrain air bubbles. The coated and covered labelstock was cut into 10 cm by 20 cm rectangles using a paper cutter. The cut samples were passed by hand about 15 cm beneath a medium pressure mercury arc lamp operating at 79 watts per cm; multiple hand passes beneath the UV light or about 30 seconds under the lamp was used to cure the adhesive. The cured coated labelstock sheets were allowed to sit PET side up on a laboratory bench overnight.
A paper cutter was used to cut six replicate 2.5 cm by 2.5 cm squares from the sheets. Because the UV cured coating composition is a pressure sensitive adhesive, or PSA, the 2.5 cm by 2.5 cm squares are termed “PSA labels.” Each PSA label, with the silicone coated PET still in place, was placed in a 250 mL serum bottle. Each bottle was sealed with a TEFLON® faced silicone septum. The headspace concentration of 1-MCP was measured after 1 hour following introduction of the PSA label into a bottle, using the technique of Example 3 except that 250 μL of gas was removed from the sample bottle for the analysis. 1-MCP was below the quantification limit of 0.01 ppm.
Then 50 μL of deionized water was injected into each bottle. […] The sealed bottle headspace was analyzed at 10 minutes, 30 minutes, and 60 minutes, using the technique of Example 3. A final headspace sample was analyzed 16 hours after the injection of water. The data illustrate that 1-MCP was released from a PSA label into the headspace when exposed to water vapor (humidity) and that its concentration increases over time.

[2] = Example 11: 1-MCP headspace release from UV coating on polyethylene coated paperboard; assay type: physicochemical; conditions: UV coating with 1-MCP/c/α-CD on PE coated paperboard, 5 cm x 5 cm, 250 mL jar, 200 μL water, average
Procedure: A 20 mL bottle was charged with 9.6 g of UV curable coating formulation (VP 10169/60 MF-2NE, obtained from Verga GmbH of Aschau am Inn, Germany). Then 0.4 g of 1-MCP/c/α-CD (4.7% 1-MCP, obtained from AgroFresh of […], Pa.) was added to the bottle. The bottle was firmly capped and the components mixed by shaking the bottle by hand until the contents appeared to be uniformly dispersed, providing a UV curable mixture.
A polyethylene coated paperboard was prepared by heat laminating a 30 μm thick polyethylene film to a 20 cm×20 cm section of 600 μm thick solid bleached sulfate (SBS) paperboard (obtained from Graphic Packaging International of_) using a heated vacuum press. A rubber ink roller was used to deliver a thin (nominally 0.3 μm) coating of the UV curable mixture to the laboratory prepared polyethylene coated paperboard, using the technique of Example 2. A paper cutter was used to cut a 20 cm by 10 cm rectangle of the coated portion of the board. The coated rectangle was passed by hand about 10 cm beneath a medium pressure mercury arc lamp operating at 79 watts per cm. After 1.5 seconds exposure to the lamp, the sample was removed. The cured sample was allowed to sit on a laboratory bench overnight, coating side down.
After curing, 5 cm by 5 cm sections were cut from the 20 cm by 10 cm rectangles. Each section was individually placed into a 250 mL jar (tall clear WM SEPTA-JAR™, Fisher Scientific P/N 05-719-452; obtained from Fisher Scientific of Waltham, Mass.) equipped with a TEFLON™ faced septum (Fisher Scientific P/N 14-965-84). Each jar was injected with 200 μL of deionized water. […] Jar headspace was analyzed for 1-MCP at […] time periods (0.17, 0.5, 1, 2, 4 and 7 hours) after the injection of water, using the analytical technique employed in Example 3. The results exemplify that greater amounts of 1-MCP were released into the headspace from the UV coated substrate with increasing time.

[3] = cited from earlier work

In the case of CC1=CC1 [1-MCP, 1-methylcyclopropene], the “Headspace concentration of 1-MCP, average” value ([1]; 0.17 hours) is reported as 0.01 ppm (v/v), the “Headspace concentration of 1-MCP, average” value ([1]; 0.5 hours) is reported as 1.3 ppm (v/v) and the “Headspace concentration of 1-MCP, average” value ([1]; 1 hour) is reported as 3.6 ppm (v/v). The “Headspace concentration of 1-MCP, average” value ([1]; 16 hours) was 29.7 ppm (v/v), the “Headspace concentration of 1-MCP” value ([1]; no water, 1 hour, quantification limit) was < 0.01 ppm and the “Headspace concentration of 1-MCP” value ([2]; 0.17 hours) was 0.16 ppm (v/v). For the same compound, the “Headspace concentration of 1-MCP” value ([2]; 0.5 hours) was 0.63 ppm (v/v), the “Headspace concentration of 1-MCP” value ([2]; 1 hour) was 1.6 ppm (v/v) and the “Headspace concentration of 1-MCP” value ([2]; 2 hours) was 3.6 ppm (v/v). For the same compound, the “Headspace concentration of 1-MCP” value ([2]; 4 hours) was 7.3 ppm (v/v), the “Headspace concentration of 1-MCP” value ([2]; 7 hours) was 12.5 ppm (v/v) and the 1-MCP remained complexed ([3]; 1-MCP/c/α-CD, end of the experiments) was ~83.4%. The “total complexed 1-MCP dissociated at the end of the experiments, average” value ([3]; 1-MCP/c/α-CD, humidity-triggered dissociation) was ~17.6% and the “complexed 1-MCP released from 1-MCP/c/α-CD” value ([3]; 100% relative humidity) was “less than 20%”.
